Values of other authors as cited in patent US10722456B2, “Oral composition of celecoxib for treatment of pain” (Dr. Reddy's Laboratories Ltd., priority 2016, dated 2020).

Conditions: oral administration

For Cc1ccc(-c2cc(C(F)(F)F)nn2-c2ccc(S(N)(=O)=O)cc2)cc1 [Celecoxib, 4-[5-(4-methylphenyl)—3-(trifluoromethyl)-1H-pyrazol-1-yl] benzenesulfonamide], the “time for peak plasma concentrations to be achieved” value is given as “approximately 3.0 hours”.
